Reference: ChEMBL document CHEMBL1122576 (J Med Chem, 1984)

Tests used:
[1] = tested on: Rattus norvegicus; test: Dose that decreased sorbitol accumulation by 50% in the sciatic nerve in the galactosemic rat model after administration for 3 weeks in the diet; 4.8+/- 2.4 mg/(kg day); format: functional
[2] = tested on: Rattus norvegicus; test: Dose that decreased galactitol accumulation by 50% in the sciatic nerve in the galactosemic rat model after administration for 4 days in the diet; 7.3+/-2.3 mg/(kg day); format: functional
[3] = tested on: Rattus norvegicus; test: Dose that decreased galactitol accumulation by 50% in the sciatic nerve in the galactosemic rat model after administration for 4 days in the diet; format: functional
[4] = target: Aldo-keto reductase family 1 member B1 (Bos taurus, UniProt P16116); test: Inhibition of bovine lens aldose reductase with DL-glyceraldehyde as substrate
[5] = tested on: Rattus norvegicus; test: Dose that decreased sorbitol accumulation by 50% in the sciatic nerve in the galactosemic rat model after administration for 3 weeks in the diet; format: functional

COc1ccc2c(C(=S)N(C)CC(=O)O)cccc2c1C(F)(F)F [TOLRESTAT]
Dose [1]: 4.8 mg/kg/day
Dose [2]: 7.3 mg/kg/day

O=C(O)CN1C(=O)c2cccc3cccc(c23)C1=O [ALRESTATIN]
Dose [3]: ~900 mg/kg/day
IC50 [4]: 2.7 µM
Dose [5]: ~1000 mg/kg/day
